Source: ChEMBL document CHEMBL6109109, “Fatty acid binding protein 5 inhibitors as novel anticancer agents against metastatic castration-resistant prostate cancer” (Bioorg Med Chem, 2025)

Tests used:
Format in all cases: functional
[1] = test system: PC-3; assay: Synergistic anticancer activity against human PC-3 cells assessed as cell growth inhibition at 5 uM measured after 72 hrs in presence of 0.00001 uM of topotecan by MTT assay relative to control; conditions: read-out: GI
[2] = test system: PC-3; assay: Synergistic anticancer activity against human PC-3 cells assessed as cell growth inhibition at 20 uM measured after 72 hrs in presence of 1 uM of topotecan by MTT assay relative to control; conditions: read-out: GI
[3] = Cytotoxicity against mouse RCaP cells assessed as cell growth inhibition at 20 uM measured after 72 hrs by MTT assay relative to control; conditions: read-out: GI
[4] = test system: PC-3; assay: Cytotoxicity against human PC-3 cells assessed as cell growth inhibition at 20 uM measured after 72 hrs by MTT assay relative to control; conditions: read-out: GI
[5] = Cytotoxicity against mouse RCaP cells assessed as cell growth inhibition at 5 uM measured after 72 hrs by MTT assay relative to control; conditions: read-out: GI
[6] = Synergistic anticancer activity against mouse RCaP cells assessed as cell growth inhibition at […] measured after 72 hrs in presence of 0.001 uM of topotecan by MTT assay relative to control; conditions: dose 2.5 µM, read-out: GI
[7] = Synergistic anticancer activity against mouse RCaP cells assessed as cell growth inhibition at 20 uM measured after 72 hrs in presence of 10 uM of topotecan by MTT assay relative to control; conditions: read-out: GI
[8] = test system: PC-3; assay: Synergistic anticancer activity against human PC-3 cells assessed as cell growth inhibition at 10 uM measured after 72 hrs in presence of 0.00001 uM of topotecan by MTT assay relative to control; conditions: read-out: GI
[9] = Cytotoxicity against mouse RCaP cells assessed as cell growth inhibition at 10 uM measured after 72 hrs by MTT assay relative to control; conditions: read-out: GI
[10] = Synergistic anticancer activity against mouse RCaP cells assessed as cell growth inhibition at 5 uM measured after 72 hrs in presence of 10 uM of topotecan by MTT assay relative to control; conditions: read-out: GI
[11] = test system: PC-3; assay: Synergistic anticancer activity against human PC-3 cells assessed as cell growth inhibition at 5 uM measured after 72 hrs in presence of 0.1 uM of topotecan by MTT assay relative to control; conditions: read-out: GI
[12] = Synergistic anticancer activity against mouse RCaP cells assessed as cell growth inhibition at […] measured after 72 hrs in presence of 1 uM of topotecan by MTT assay relative to control; conditions: dose 2.5 µM, read-out: GI
[13] = Synergistic anticancer activity against mouse RCaP cells assessed as cell growth inhibition at 10 uM measured after 72 hrs in presence of 0.0001 uM of topotecan by MTT assay relative to control; conditions: read-out: GI
[14] = test system: PC-3; assay: Synergistic anticancer activity against human PC-3 cells assessed as cell growth inhibition at 20 uM measured after 72 hrs in presence of 10 uM of topotecan by MTT assay relative to control; conditions: read-out: GI
[15] = test system: PC-3; assay: Synergistic anticancer activity against human PC-3 cells assessed as cell growth inhibition at 10 uM measured after 72 hrs in presence of 0.0001 uM of topotecan by MTT assay relative to control; conditions: read-out: GI
[16] = Synergistic anticancer activity against mouse RCaP cells assessed as cell growth inhibition at 10 uM measured after 72 hrs in presence of 10 uM of topotecan by MTT assay relative to control; conditions: read-out: GI
[17] = Synergistic anticancer activity against mouse RCaP cells assessed as cell growth inhibition at 10 uM measured after 72 hrs in presence of 0.1 uM of topotecan by MTT assay relative to control; conditions: read-out: GI
[18] = test system: PC-3; assay: Synergistic anticancer activity against human PC-3 cells assessed as cell growth inhibition at 10 uM measured after 72 hrs in presence of 1 uM of topotecan by MTT assay relative to control; conditions: read-out: GI
[19] = Synergistic anticancer activity against mouse RCaP cells assessed as cell growth inhibition at 10 uM measured after 72 hrs in presence of 0.001 uM of topotecan by MTT assay relative to control; conditions: read-out: GI
[20] = Synergistic anticancer activity against mouse RCaP cells assessed as cell growth inhibition at 10 uM measured after 72 hrs in presence of 0.00001 uM of topotecan by MTT assay relative to control; conditions: read-out: GI
[21] = Synergistic anticancer activity against mouse RCaP cells assessed as cell growth inhibition at 20 uM measured after 72 hrs in presence of 0.001 uM of topotecan by MTT assay relative to control; conditions: read-out: GI
[22] = test system: PC-3; assay: Synergistic anticancer activity against human PC-3 cells assessed as cell growth inhibition at 10 uM measured after 72 hrs in presence of 0.1 uM of topotecan by MTT assay relative to control; conditions: read-out: GI
[23] = Synergistic anticancer activity against mouse RCaP cells assessed as cell growth inhibition at 20 uM measured after 72 hrs in presence of 0.00001 uM of topotecan by MTT assay relative to control; conditions: read-out: GI
[24] = Synergistic anticancer activity against mouse RCaP cells assessed as cell growth inhibition at […] measured after 72 hrs in presence of 0.1 uM of topotecan by MTT assay relative to control; conditions: dose 2.5 µM, read-out: GI
[25] = test system: PC-3; assay: Synergistic anticancer activity against human PC-3 cells assessed as cell growth inhibition at 10 uM measured after 72 hrs in presence of 0.01 uM of topotecan by MTT assay relative to control; conditions: read-out: GI
[26] = test system: PC-3; assay: Synergistic anticancer activity against human PC-3 cells assessed as cell growth inhibition at 5 uM measured after 72 hrs in presence of 10 uM of topotecan by MTT assay relative to control; conditions: read-out: GI
[27] = test system: PC-3; assay: Synergistic anticancer activity against human PC-3 cells assessed as cell growth inhibition at 10 uM measured after 72 hrs in presence of 0.001 uM of topotecan by MTT assay relative to control; conditions: read-out: GI
[28] = Synergistic anticancer activity against mouse RCaP cells assessed as cell growth inhibition at 5 uM measured after 72 hrs in presence of 0.01 uM of topotecan by MTT assay relative to control; conditions: read-out: GI
[29] = Synergistic anticancer activity against mouse RCaP cells assessed as cell growth inhibition at 20 uM measured after 72 hrs in presence of 1 uM of topotecan by MTT assay relative to control; conditions: read-out: GI
[30] = Cytotoxicity against mouse RCaP cells assessed as cell growth inhibition at […] measured after 72 hrs by MTT assay relative to control; conditions: dose 2.5 µM, read-out: GI
[31] = Synergistic anticancer activity against mouse RCaP cells assessed as cell growth inhibition at 20 uM measured after 72 hrs in presence of 0.1 uM of topotecan by MTT assay relative to control; conditions: read-out: GI
[32] = Synergistic anticancer activity against mouse RCaP cells assessed as cell growth inhibition at […] measured after 72 hrs in presence of 0.00001 uM of topotecan by MTT assay relative to control; conditions: dose 2.5 µM, read-out: GI
[33] = test system: PC-3; assay: Synergistic anticancer activity against human PC-3 cells assessed as cell growth inhibition at 20 uM measured after 72 hrs in presence of 0.0001 uM of topotecan by MTT assay relative to control; conditions: read-out: GI
[34] = Synergistic anticancer activity against mouse RCaP cells assessed as cell growth inhibition at […] measured after 72 hrs in presence of 0.0001 uM of topotecan by MTT assay relative to control; conditions: dose 2.5 µM, read-out: GI
[35] = test system: PC-3; assay: Synergistic anticancer activity against human PC-3 cells assessed as cell growth inhibition at 5 uM measured after 72 hrs in presence of 0.01 uM of topotecan by MTT assay relative to control; conditions: read-out: GI

Row | Compound | inhibition of growth at 5 µM [1] | inhibition of growth at 20 µM [2] | inhibition of growth at 20 µM [3] | inhibition of growth at 20 µM [4] | inhibition of growth at 5 µM [5] | inhibition of growth at […] [6] | inhibition of growth at 20 µM [7] | inhibition of growth at 10 µM [8] | inhibition of growth at 10 µM [9] | inhibition of growth at 5 µM [10] | inhibition of growth at 5 µM [11] | inhibition of growth at […] [12] | inhibition of growth at 10 µM [13] | inhibition of growth at 20 µM [14] | inhibition of growth at 10 µM [15] | inhibition of growth at 10 µM [16] | inhibition of growth at 10 µM [17] | inhibition of growth at 10 µM [18] | inhibition of growth at 10 µM [19] | inhibition of growth at 10 µM [20] | further results
1 | COc1ccccc1[C@H]1[C@H](C(=O)O)[C@H](c2ccccc2OC)[C@H]1C(=O)OCC1c2ccccc2-c2ccccc21 | 24.6% | 99.8% | 98.2% | 89.1% | 8.67% | 6.8% | 99.3% | 56.3% | 64.9% | 99.4% | 56.3% | 98.1% | 75.1% | 92.3% | 59.3% | 99.2% | 94.3% | 82.2% | 76.7% | 76.5% | inhibition of growth at 20 µM [21]: 98.5%; inhibition of growth at 10 µM [22]: 66.8%; inhibition of growth at 20 µM [23]: 98.1%; inhibition of growth at […] [24]: 86.6%; inhibition of growth at 10 µM [25]: 64.8%; inhibition of growth at 5 µM [26]: 86.4%; inhibition of growth at 10 µM [27]: 60.9%; inhibition of growth at 5 µM [28]: 31.8%; inhibition of growth at 20 µM [29]: 99.1%; inhibition of growth at […] [30]: 5.2%; inhibition of growth at 20 µM [31]: 99.9%; inhibition of growth at […] [32]: 0.97%; inhibition of growth at 20 µM [33]: 99.8%; inhibition of growth at […] [34]: -4.8%; inhibition of growth at 5 µM [35]: 34.6%
2 | O=C(O)[C@H]1[C@H](c2ccccc2)[C@H](C(=O)Oc2cc(-c3ccc4c(c3)OCO4)ccc2-c2ccccc2)[C@H]1c1ccccc1 | 28.5% | 99.3% | 94.7% | 96.1% | 22.5% | 6.33% | 99.2% | 78.9% | 58.6% | 99.6% | 49.9% | 98.6% | 68% | 98.2% | 78.5% | 99.9% | 97.2% | 92% | 71.9% | 68.4% | inhibition of growth at 20 µM [21]: 97.8%; inhibition of growth at 10 µM [22]: 82.4%; inhibition of growth at 20 µM [23]: 97.6%; inhibition of growth at […] [24]: 82%; inhibition of growth at 10 µM [25]: 83%; inhibition of growth at 5 µM [26]: 80.8%; inhibition of growth at 10 µM [27]: 81.1%; inhibition of growth at 5 µM [28]: 34.4%; inhibition of growth at 20 µM [29]: 98.8%; inhibition of growth at […] [30]: 5.2%; inhibition of growth at 20 µM [31]: 98.9%; inhibition of growth at […] [32]: 5.43%; inhibition of growth at 20 µM [33]: 89%; inhibition of growth at […] [34]: 10.1%; inhibition of growth at 5 µM [35]: 35.2%
3 | COc1ccccc1[C@H]1[C@H](C(=O)O)[C@H](c2ccccc2OC)[C@H]1C(=O)Oc1cc(-c2ccc3c(c2)OCO3)ccc1-c1ccccc1 | 44.3% | 99.1% | 99.7% | 99.2% | 40.6% | 1.77% | 100% | 69.5% | 78.2% | 99.1% | 66.6% | 98.2% | 89.4% | 98.8% | 67.7% | 97% | 89.9% | 88.7% | 88.4% | 89.5% | inhibition of growth at 20 µM [21]: 100%; inhibition of growth at 10 µM [22]: 81.4%; inhibition of growth at 20 µM [23]: 100%; inhibition of growth at […] [24]: 89.9%; inhibition of growth at 10 µM [25]: 77.4%; inhibition of growth at 5 µM [26]: 92.5%; inhibition of growth at 10 µM [27]: 72.4%; inhibition of growth at 5 µM [28]: 49.6%; inhibition of growth at 20 µM [29]: 100%; inhibition of growth at […] [30]: 2.8%; inhibition of growth at 20 µM [31]: 99.6%; inhibition of growth at […] [32]: -1.97%; inhibition of growth at 20 µM [33]: 99.5%; inhibition of growth at […] [34]: -3.7%; inhibition of growth at 5 µM [35]: 57.7%
